Source: ChEMBL document CHEMBL3727350, “Agents and methods for treating ischemic and other diseases” (2014)
Activity calls are given as the source filed them. No cut-off for these calls is given here.

Columns and labels:
[1] = tested on: Y79; assay: Inhibition of cell proliferation of human Y79 cells at 1 uM to 7.5 uM by MTT assay; type: functional, cell-based
[2] = tested on: WERI; assay: Inhibition of cell proliferation of human WERI cells at 0.25 uM to 10 uM by MTT assay; type: functional, cell-based
[3] = tested on: Y79; assay: Reduction in cell viability in human Y79 cells on rat retinal explants at 5 uM; type: functional, cell-based
[4] = tested on: Y79; assay: Inhibition of cell migration of human Y79 cells assessed as reduction in cell ability to migrate away from retina in cultured explants at 5 uM; type: functional, cell-based
[5] = tested on: WERI; assay: Inhibition of cell migration of human WERI cells assessed as reduction in cell ability to migrate away from retina in cultured explants at 1 uM; type: functional, cell-based
[6] = tested on: HeLa; assay: Inhibition of cell proliferation of human HeLa cells at 1.25 to 10 uM incubated for 48 hrs by BrdU incorporation assay; type: functional, cell-based
[7] = tested on: SW13; assay: Inhibition of cell proliferation of human SW13 cells at 1.25 to 10 uM incubated for 48 hrs by BrdU incorporation assay; type: functional, cell-based
[8] = tested on: SW13; assay: Inhibition of cell proliferation of human SW13 cells at 1.25 to 10 uM incubated for 72 hrs by SRB assay; type: functional, cell-based
[9] = tested on: MDA-MB-231; assay: Inhibition of cell proliferation of human MDA-MB-231 cells at 1.25 to 10 uM incubated for 72 hrs by SRB assay; type: functional, cell-based
[10] = tested on: B16-F1; assay: Inhibition of cell proliferation of mouse B16-F1 cells at 1.25 to 10 uM incubated for 72 hrs by SRB assay; type: functional, cell-based
[11] = tested on: B16-F10; assay: Inhibition of cell proliferation of mouse B16F10 cells at 1.25 to 10 uM incubated for 72 hrs by SRB assay; type: functional, cell-based
[12] = Inhibition of cell proliferation of mouse NIH/3T3 cells at 1.25 to 10 uM incubated for 72 hrs by propidium iodide staining assay; type: cell-based; conditions: nih3t3, 72 h
[13] = target: Transient receptor potential cation channel subfamily M member 7 (Mus musculus) (UniProt Q923J1); assay: Inhibition of Tet-induced Flag-tagged mouse TRPM7 expressed in HEK293 cells assessed as inhibition of channel-mediated cell death in presence of Mg2+ incubated for 24 to 48 hrs by propidium iodide uptake assay; type: cell-based; parameters: concentration or dose not given beside the values
[14] = target: Transient receptor potential cation channel subfamily M member 7 (Mus musculus) (UniProt Q923J1); assay: Inhibition of Tet-induced Flag-tagged mouse TRPM7 expressed in HEK293 cells assessed as reduction in channel currents at 0.3 to 30 uM by whole cell patch clamp assay; type: cell-based
[15] = target: Transient receptor potential cation channel subfamily M member 7 (Rattus norvegicus) (UniProt Q925B3); assay: Inhibition of TRPM7 in rat H9C2 cells assessed as reduction in channel currents at 0.3 to 30 uM by whole cell patch clamp assay; type: cell-based
[16] = target: Transient receptor potential cation channel subfamily M member 7 (Mus musculus) (UniProt Q923J1); assay: Inhibition of Tet-induced Flag-tagged mouse TRPM7 expressed in HEK293 cells assessed as reduction in channel currents at 2 mM using compound applied intracellularly by whole cell patch clamp assay; type: cell-based
[17] = target: Transient receptor potential cation channel subfamily M member 7 (Mus musculus) (UniProt Q923J1); assay: Inhibition of Tet-induced Flag-tagged mouse TRPM7 expressed in HEK293 cells assessed as reduction in channel currents at 2 mM using compound applied extracellularly by whole cell patch clamp assay; type: cell-based
[18] = target: Transient receptor potential cation channel subfamily M member 7 (Mus musculus) (UniProt Q923J1); assay: Inhibition of TRPM7 in mouse primary neuronal cells exposed to oxygen glucose deprivation condition for 1 to 3 hrs assessed as reduction in TRPM7-mediated anoxic cell death dosed before oxygen glucose deprivation condition by propidium iodide uptake assay; conditions: Primary neuron
[19] = target: Transient receptor potential cation channel subfamily M member 7 (Mus musculus) (UniProt Q923J1); assay: Inhibition of TRPM7 in mouse primary neuronal cells exposed to oxygen glucose deprivation condition for 1 to 3 hrs assessed as reduction in TRPM7-mediated anoxic cell death dosed after oxygen glucose deprivation condition by propidium iodide uptake assay; conditions: Primary neuron
[20] = target: Transient receptor potential cation channel subfamily M member 7 (Rattus norvegicus) (UniProt Q925B3); assay: Inhibition of TRPM7 in rat H9C2 cells exposed to oxygen glucose deprivation condition for 1 to 6 hrs assessed as reduction in TRPM7-mediated anoxic cell death in presence of 1 uM nifedipine by propidium iodide uptake assay; type: cell-based
[21] = Cytotoxic activity against mouse primary cortical neurons assessed as reduction in cell viability at 1 to 7.5 uM incubated for 48 to 72 hrs by MTT assay; type: cell-based; conditions: cerebral cortex neuron
[22] = tested on: Y79; assay: Inhibition of cell proliferation of human Y79 cells at 10 uM incubated for 48 to 96 hrs; type: functional
[23] = tested on: MCF7; assay: Inhibition of cell proliferation of human MCF7 cells at 10 uM incubated for 48 to 96 hrs; type: functional
[24] = tested on: MDA-MB-231; assay: Inhibition of cell proliferation of human MDA-MB-231 cells at 10 uM incubated for 48 to 96 hrs; type: functional
[25] = Inhibition of cell proliferation of mouse B16-F1 cells at 10 uM incubated for 48 to 96 hrs; type: functional
[26] = tested on: SW13; assay: Inhibition of cell proliferation of human SW13 cells at 10 uM incubated for 48 to 96 hrs; type: functional
[27] = tested on: HeLa; assay: Inhibition of cell proliferation of human HeLa cells at 10 uM incubated for 48 to 96 hrs; type: functional
[28] = tested on: U2OS; assay: Inhibition of cell proliferation of human U2OS cells at 10 uM incubated for 48 to 96 hrs; type: functional
[29] = Inhibition of cell proliferation of human DMS53 cells at 10 uM incubated for 48 to 96 hrs; type: functional; conditions: DMS-53
[30] = Inhibition of cell proliferation of human DMS456 cells at 10 uM incubated for 48 to 96 hrs; type: functional
[31] = tested on: NCI-H292; assay: Inhibition of cell proliferation of human NCI-H292 cells at 10 uM incubated for 48 to 96 hrs; type: functional
[32] = Inhibition of cell proliferation of human HCT116 cells at 10 uM incubated for 48 to 96 hrs; type: functional; conditions: HCT-116
[33] = tested on: A-375; assay: Inhibition of cell proliferation of human A375 cells at 10 uM incubated for 48 to 96 hrs; type: functional
[34] = Inhibition of cell proliferation of human […] cells at 10 uM incubated for 48 to 96 hrs; type: functional; conditions: RXF 393
[35] = Inhibition of cell proliferation of human WERI cells at 10 uM incubated for 48 to 96 hrs; type: functional
[36] = Inhibition of cell proliferation of mouse B16F10 cells at 10 uM incubated for 48 to 96 hrs; type: functional; conditions: B16-F10
[37] = Toxicity in mouse assessed as maximum tolerated dose; type: organism-based; conditions: in vivo
[38] = tested on: B16-F10; assay: Antitumor activity against mouse B16F10 cells implanted in mouse assessed as inhibition of tumor growth at 20 mg/kg, iv qd; type: functional, organism-based
[39] = tested on: RXF 393; assay: Antitumor activity against human RXF393 cells implanted in mouse assessed as inhibition of tumor growth at 20 mg/kg, iv qd; type: functional, organism-based
[40] = target: Transient receptor potential cation channel subfamily M member 7 (Mus musculus) (UniProt Q923J1); assay: Inhibition of TRPM7 in mouse mouse primary cortical neurons exposed to 2 hrs oxygen glucose deprivation condition assessed as reduction in TRPM7-mediated anoxic cell death measured after 20 hrs by propidium iodide uptake assay; type: cell-based; conditions: Cerebral cortex neuron
[41] = target: Transient receptor potential cation channel subfamily M member 7 (Mus musculus) (UniProt Q923J1); assay: Inhibition of TRPM7 in mouse mouse primary cortical neurons exposed to 2 hrs oxygen glucose deprivation condition assessed as reduction in TRPM7-mediated anoxic cell death at 0.625 to 5 uM pre-incubated for 24 hrs before OGD measured after 20 hrs by propidium iodide uptake assay; type: cell-based; conditions: Cerebral cortex neuron

Sequence of Transient receptor potential cation channel subfamily M member 7 (Mus musculus) (Q923J1 whole entry): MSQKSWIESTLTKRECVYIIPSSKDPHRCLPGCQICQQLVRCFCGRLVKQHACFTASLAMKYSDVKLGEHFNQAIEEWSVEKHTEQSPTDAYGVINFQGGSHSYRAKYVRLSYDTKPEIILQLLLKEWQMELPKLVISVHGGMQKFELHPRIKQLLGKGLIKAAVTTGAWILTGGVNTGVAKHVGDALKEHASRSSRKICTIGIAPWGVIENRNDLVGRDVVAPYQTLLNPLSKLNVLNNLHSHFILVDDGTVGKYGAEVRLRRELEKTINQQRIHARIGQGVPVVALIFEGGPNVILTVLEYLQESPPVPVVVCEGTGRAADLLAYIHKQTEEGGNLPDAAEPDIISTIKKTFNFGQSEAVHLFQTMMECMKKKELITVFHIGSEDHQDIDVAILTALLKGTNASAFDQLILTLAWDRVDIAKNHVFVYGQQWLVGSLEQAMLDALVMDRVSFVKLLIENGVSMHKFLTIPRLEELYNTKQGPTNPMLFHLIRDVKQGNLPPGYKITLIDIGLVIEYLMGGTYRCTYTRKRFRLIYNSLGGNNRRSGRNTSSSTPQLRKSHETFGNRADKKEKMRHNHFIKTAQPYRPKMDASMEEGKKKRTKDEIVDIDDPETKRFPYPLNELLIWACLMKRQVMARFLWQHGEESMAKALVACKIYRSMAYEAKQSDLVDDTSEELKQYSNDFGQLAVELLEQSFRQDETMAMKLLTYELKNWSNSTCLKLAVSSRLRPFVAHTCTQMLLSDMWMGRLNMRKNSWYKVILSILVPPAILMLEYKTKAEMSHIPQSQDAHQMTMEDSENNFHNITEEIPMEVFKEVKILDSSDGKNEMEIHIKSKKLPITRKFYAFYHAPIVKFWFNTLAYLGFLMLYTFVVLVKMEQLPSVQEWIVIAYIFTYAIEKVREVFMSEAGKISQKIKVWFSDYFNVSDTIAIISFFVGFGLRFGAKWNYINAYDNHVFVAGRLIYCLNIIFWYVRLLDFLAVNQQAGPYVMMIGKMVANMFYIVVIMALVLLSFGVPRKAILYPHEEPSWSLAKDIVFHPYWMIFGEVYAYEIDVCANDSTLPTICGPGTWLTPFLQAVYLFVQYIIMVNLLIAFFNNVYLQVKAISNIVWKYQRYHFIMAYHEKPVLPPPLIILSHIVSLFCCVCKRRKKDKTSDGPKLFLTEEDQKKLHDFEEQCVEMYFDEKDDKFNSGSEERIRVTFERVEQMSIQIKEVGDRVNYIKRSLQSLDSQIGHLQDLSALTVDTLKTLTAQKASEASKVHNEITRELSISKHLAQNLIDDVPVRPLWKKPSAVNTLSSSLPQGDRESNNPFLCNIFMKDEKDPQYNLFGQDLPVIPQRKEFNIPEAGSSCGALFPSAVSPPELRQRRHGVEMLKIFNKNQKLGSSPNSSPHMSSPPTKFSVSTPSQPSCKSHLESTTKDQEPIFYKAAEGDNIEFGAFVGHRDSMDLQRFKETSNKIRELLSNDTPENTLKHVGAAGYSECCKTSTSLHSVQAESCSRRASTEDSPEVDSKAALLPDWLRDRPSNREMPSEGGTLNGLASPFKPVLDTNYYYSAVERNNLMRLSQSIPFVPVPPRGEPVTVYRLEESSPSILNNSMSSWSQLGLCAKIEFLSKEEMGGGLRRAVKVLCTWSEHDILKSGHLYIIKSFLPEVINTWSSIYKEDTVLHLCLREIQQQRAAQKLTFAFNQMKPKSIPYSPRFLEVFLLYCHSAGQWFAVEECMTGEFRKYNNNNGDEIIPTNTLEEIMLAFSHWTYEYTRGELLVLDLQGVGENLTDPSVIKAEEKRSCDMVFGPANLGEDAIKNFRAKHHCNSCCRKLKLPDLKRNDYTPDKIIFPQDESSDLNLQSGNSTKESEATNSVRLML
Sequence of Transient receptor potential cation channel subfamily M member 7 (Rattus norvegicus) (Q925B3 whole entry): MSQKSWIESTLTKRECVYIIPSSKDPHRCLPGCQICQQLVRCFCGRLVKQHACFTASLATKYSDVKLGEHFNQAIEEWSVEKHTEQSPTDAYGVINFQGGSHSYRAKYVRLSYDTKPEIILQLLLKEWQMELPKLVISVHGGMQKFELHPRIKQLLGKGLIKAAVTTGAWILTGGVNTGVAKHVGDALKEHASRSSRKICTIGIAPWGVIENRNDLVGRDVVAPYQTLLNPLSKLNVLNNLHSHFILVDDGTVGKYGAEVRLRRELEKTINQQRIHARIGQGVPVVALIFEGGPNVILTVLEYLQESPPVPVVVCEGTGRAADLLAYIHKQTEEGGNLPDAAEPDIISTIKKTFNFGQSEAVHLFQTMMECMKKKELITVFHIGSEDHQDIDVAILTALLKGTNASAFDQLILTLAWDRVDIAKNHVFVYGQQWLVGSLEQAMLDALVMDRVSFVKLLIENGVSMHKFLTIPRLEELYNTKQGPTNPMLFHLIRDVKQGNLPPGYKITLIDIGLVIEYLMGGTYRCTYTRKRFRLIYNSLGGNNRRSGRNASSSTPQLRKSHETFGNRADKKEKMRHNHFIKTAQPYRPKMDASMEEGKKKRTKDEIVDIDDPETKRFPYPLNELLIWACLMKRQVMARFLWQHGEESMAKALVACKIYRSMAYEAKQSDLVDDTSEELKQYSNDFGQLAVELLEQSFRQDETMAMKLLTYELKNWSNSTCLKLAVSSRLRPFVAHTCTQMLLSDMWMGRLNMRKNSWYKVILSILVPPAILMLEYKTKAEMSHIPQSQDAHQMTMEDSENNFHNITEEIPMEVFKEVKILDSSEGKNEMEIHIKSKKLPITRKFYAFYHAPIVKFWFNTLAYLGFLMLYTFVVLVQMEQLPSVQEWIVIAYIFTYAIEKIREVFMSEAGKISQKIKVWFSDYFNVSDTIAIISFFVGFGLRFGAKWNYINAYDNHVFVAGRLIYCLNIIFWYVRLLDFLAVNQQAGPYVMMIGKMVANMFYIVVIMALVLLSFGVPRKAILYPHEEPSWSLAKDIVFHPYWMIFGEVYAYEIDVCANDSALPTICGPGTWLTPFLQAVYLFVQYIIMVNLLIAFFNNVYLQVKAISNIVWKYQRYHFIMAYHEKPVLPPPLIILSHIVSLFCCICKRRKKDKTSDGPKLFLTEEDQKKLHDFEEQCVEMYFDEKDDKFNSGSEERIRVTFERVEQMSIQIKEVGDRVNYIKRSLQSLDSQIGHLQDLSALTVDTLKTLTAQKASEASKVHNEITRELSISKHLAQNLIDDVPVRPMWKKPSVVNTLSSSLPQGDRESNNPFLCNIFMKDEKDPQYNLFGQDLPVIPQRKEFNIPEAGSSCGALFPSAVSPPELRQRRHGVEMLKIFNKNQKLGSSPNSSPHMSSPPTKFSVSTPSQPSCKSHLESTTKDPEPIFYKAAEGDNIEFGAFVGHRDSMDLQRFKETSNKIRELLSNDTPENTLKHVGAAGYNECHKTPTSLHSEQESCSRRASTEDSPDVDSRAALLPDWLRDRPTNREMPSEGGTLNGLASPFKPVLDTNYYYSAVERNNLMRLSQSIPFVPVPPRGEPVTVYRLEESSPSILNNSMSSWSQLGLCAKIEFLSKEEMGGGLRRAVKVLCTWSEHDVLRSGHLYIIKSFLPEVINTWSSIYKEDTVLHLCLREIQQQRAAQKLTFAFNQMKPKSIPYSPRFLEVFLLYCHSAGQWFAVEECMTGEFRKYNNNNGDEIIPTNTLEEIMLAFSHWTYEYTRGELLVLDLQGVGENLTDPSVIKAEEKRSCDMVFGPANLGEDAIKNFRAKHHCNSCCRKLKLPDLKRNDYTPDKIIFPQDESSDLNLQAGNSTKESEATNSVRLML

## COc1cc2c(cc1OC)C(c1sc3ccccc3c1Cl)=NCC2
[1]
  inhibition: Active
[2]
  inhibition: Active
[3]
  inhibition: Active
[4]
  inhibition: Active
[5]
  inhibition: Active
[6]
  inhibition: Active
[7]
  inhibition: Active
[8]
  inhibition: Active
[9]
  inhibition: Active
[10]
  inhibition: Active
[11]
  inhibition: Active
[12]
  Activity: Non-toxic
[13]
  inhibition: Active
[14]
  inhibition: Active
[15]
  inhibition: Active
[16]
  inhibition: inactive
[17]
  inhibition: Active
[18]
  inhibition: Active
[19]
  inhibition: Active
[20]
  inhibition: Active
[21]
  Activity: Non-toxic
[22]
  inhibition at 10 µM: > 20%
[23]
  inhibition at 10 µM: > 20%
[24]
  inhibition at 10 µM: > 20%
[25]
  inhibition at 10 µM: > 20%
[26]
  inhibition at 10 µM: > 20%
[27]
  inhibition at 10 µM: > 20%
[28]
  inhibition at 10 µM: > 20%
[29]
  inhibition at 10 µM: > 20%
[30]
  inhibition at 10 µM: > 20%
[31]
  inhibition at 10 µM: > 20%
[32]
  inhibition at 10 µM: > 20%
[33]
  inhibition at 10 µM: > 20%
[34]
  inhibition at 10 µM: > 20%
[35]
  inhibition at 10 µM: > 20%
[36]
  inhibition at 10 µM: > 20%
[37]
  MTD: < 20 mg/kg
[38]
  TGI: Active
[39]
  TGI: Active
[40]
  inhibition: Active
[41]
  inhibition: Active
